Results: the supplement of paper PMC11451515

System: NOMO1
Test: cell viability relative to DMSO control; higher = less cytotoxic
Settings: 48 h
Outline: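 Leukemia cells (NOMO1 or SEM, 500 cells/well; P12-Ichikawa, 1000 cells/well) were seeded in 5 μl in 1536-well plates after at least four passages of adaptation to each medium. They received library compounds in DMSO by pin dosing, 11 threefold points from 47 μM to 0.79 nM. Luminescence with CellTiter-Glo One was read after 48 h at 37°C. Viability is stated per plate relative to DMSO wells, with cell-free wells as background.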

[1] = HPLM + 10% dialyzed FBS, 0.000781 µM
[2] = HPLM + 10% dialyzed FBS, 0.00234 µM
[3] = HPLM + 10% dialyzed FBS, 0.00702 µM
[4] = HPLM + 10% dialyzed FBS, 0.0211 µM
[5] = HPLM + 10% dialyzed FBS, 0.0632 µM
[6] = HPLM + 10% dialyzed FBS, 0.19 µM
[7] = HPLM + 10% dialyzed FBS, 0.569 µM
[8] = HPLM + 10% dialyzed FBS, 1.71 µM
[9] = HPLM + 10% dialyzed FBS, 5.12 µM
[10] = HPLM + 10% dialyzed FBS, 15.4 µM
[11] = HPLM + 10% dialyzed FBS, 46.1 µM
[12] = RPMI 5 mM glucose + 10% FBS, 0.000781 µM
[13] = RPMI 5 mM glucose + 10% FBS, 0.00234 µM
[14] = RPMI 5 mM glucose + 10% FBS, 0.00702 µM
[15] = RPMI 5 mM glucose + 10% FBS, 0.0211 µM
[16] = RPMI 5 mM glucose + 10% FBS, 0.0632 µM
[17] = RPMI 5 mM glucose + 10% FBS, 0.19 µM
[18] = RPMI 5 mM glucose + 10% FBS, 0.569 µM
[19] = RPMI 5 mM glucose + 10% FBS, 1.71 µM
[20] = RPMI 5 mM glucose + 10% FBS, 5.12 µM
[21] = RPMI 5 mM glucose + 10% FBS, 15.4 µM
[22] = RPMI 5 mM glucose + 10% FBS, 46.1 µM
[23] = RPMI 5 mM glucose + 10% dialyzed FBS, 0.000781 µM
[24] = RPMI 5 mM glucose + 10% dialyzed FBS, 0.00234 µM
[25] = RPMI 5 mM glucose + 10% dialyzed FBS, 0.00702 µM
[26] = RPMI 5 mM glucose + 10% dialyzed FBS, 0.0211 µM
[27] = RPMI 5 mM glucose + 10% dialyzed FBS, 0.0632 µM
[28] = RPMI 5 mM glucose + 10% dialyzed FBS, 0.19 µM
[29] = RPMI 5 mM glucose + 10% dialyzed FBS, 0.569 µM
[30] = RPMI 5 mM glucose + 10% dialyzed FBS, 1.71 µM
[31] = RPMI 5 mM glucose + 10% dialyzed FBS, 5.12 µM
[32] = RPMI 5 mM glucose + 10% dialyzed FBS, 15.4 µM
[33] = RPMI 5 mM glucose + 10% dialyzed FBS, 46.1 µM

SMILES	cell viability [1]	cell viability [2]	cell viability [3]	cell viability [4]	cell viability [5]	cell viability [6]	cell viability [7]	cell viability [8]	cell viability [9]	cell viability [10]	cell viability [11]	cell viability [12]	cell viability [13]	cell viability [14]	cell viability [15]	cell viability [16]	cell viability [17]	cell viability [18]	cell viability [19]	cell viability [20]	cell viability [21]	cell viability [22]	cell viability [23]	cell viability [24]	cell viability [25]	cell viability [26]	cell viability [27]	cell viability [28]	cell viability [29]	cell viability [30]	cell viability [31]	cell viability [32]	cell viability [33]
CC(C)C[C@H](NC(=O)CNC(=O)c1cc(Cl)ccc1Cl)B(O)O	88.3%	104%	106%	33.1%	125%	92%	20.4%	9.39%	4.5%	4.57%	4.02%	81.1%	88.8%	100%	16.8%	104%	86.2%	19.7%	7.24%	5.18%	4.14%	2.67%	98.5%	94.2%	108%	33.5%	96.9%	107%	28.3%	8.85%	5.16%	4.61%	2.91%
COc1cc2nc(-c3cc(F)ccc3O)nc(N[C@@H]3CNC[C@H]3C(C)(C)O)c2cc1OC	111%	115%	108%	128%	93.5%	122%	124%	109%	109%	89.4%	38.4%	107%	105%	108%	103%	101%	115%	109%	122%	114%	106%	49.4%	101%	97.8%	100%	118%	106%	112%	112%	96.6%	99.6%	88.4%	53.7%
CN1CCN2c3ncccc3Cc3ccccc3C2C1 (stereo not drawn)	121%	112%	141%	118%	138%	114%	123%	135%	33.4%	98.9%	108%	101%	105%	110%	112%	103%	103%	116%	110%	29.5%	98.8%	112%	–	–	–	–	–	–	–	–	–	–	–
CN(C)CCOc1ccc(-c2nc(-c3ccncc3)c(-c3ccc4c(c3)CC/C4=N\O)[nH]2)cc1	98.1%	113%	102%	110%	127%	129%	129%	107%	95.3%	95.2%	62.9%	97%	101%	95%	104%	118%	112%	97.2%	95.5%	104%	86.9%	81.4%	108%	105%	121%	106%	119%	121%	115%	106%	85.5%	85.4%	53.8%
NC(=O)c1cccc2nc(-c3ccc([C@H]4CCCN4)cc3F)[nH]c12	112%	120%	108%	133%	116%	131%	128%	106%	119%	107%	81.5%	95.8%	95.4%	104%	114%	125%	107%	117%	107%	101%	105%	89.6%	102%	112%	117%	121%	118%	114%	132%	130%	120%	109%	81.3%
c1ccc(CNc2nc(N3CCOc4ccccc43)nc3c2CCCC3)cc1	78.1%	97.2%	110%	103%	110%	93.4%	103%	111%	107%	100%	97.8%	100%	97.7%	109%	94.9%	99.9%	106%	106%	107%	106%	110%	90.2%	102%	103%	112%	105%	112%	111%	114%	109%	109%	97.6%	98.8%
CCC(=O)N[C@H]1CC[C@H](C(=O)N(C)c2ccc(-c3nc4ccccc4o3)cc2)C1	85.7%	106%	74.4%	111%	103%	92.5%	97.6%	98.2%	101%	98.5%	78.3%	95.8%	100%	89.6%	85.1%	99.4%	101%	97.4%	94.2%	86%	88.6%	96.9%	83.8%	89.2%	89.8%	87.8%	86.1%	86%	94.1%	90.4%	84.6%	81%	84.6%
COc1ccc([C@@H]2CC(=O)c3c(O)cc(O[C@@H]4O[C@H](CO[C@@H]5O[C@@H](C)[C@H](O)[C@@H](O)[C@H]5O)[C@@H](O)[C@H](O)[C@H]4O)cc3O2)cc1O	106%	104%	121%	111%	115%	97.7%	112%	123%	117%	109%	117%	102%	100%	121%	117%	105%	105%	110%	102%	108%	124%	120%	94.3%	101%	115%	122%	124%	107%	123%	116%	114%	114%	104%
COCCOc1nc(-c2ccc(Cl)c(Cl)c2)n(-c2ccc(NC(=O)CCl)cc2)n1	92.5%	113%	110%	114%	113%	115%	96.6%	110%	87.2%	85%	107%	78.3%	86.9%	84.4%	82.7%	85%	87.6%	80.7%	84.9%	91.3%	92.6%	86.7%	82.7%	92.1%	93.5%	83.7%	97.4%	87.5%	96.9%	93.9%	86.4%	79.7%	104%
COC1=CC=C(C=C1O)C/2=C/C(=O)C3=C(O2)C=C(O)C=C3O	93.3%	108%	108%	108%	114%	100%	95.3%	98.4%	94.4%	93.9%	110%	96.4%	86%	82.8%	87.4%	94.5%	93.7%	96.8%	88.2%	95%	105%	102%	91.3%	90.5%	85.5%	100%	105%	89.8%	83.6%	89.5%	82.5%	92.5%	98.2%
C[S+](=O)([O-])c1ccc(-c2cnc(N)c(C(=O)Nc3ccccc3)n2)cc1	113%	119%	128%	126%	118%	145%	123%	103%	115%	52.1%	56.1%	110%	110%	112%	110%	111%	133%	113%	116%	110%	87%	98.4%	95.6%	93.1%	99.7%	104%	106%	113%	117%	112%	110%	75%	69.3%
CN1\N=C(N)/C2=C[N]([C@@H]3O[C@H](CO[P](O)(O)=O)[C@@H](O)[C@H]3O)C4=C2C1=NC=N4	108%	111%	124%	111%	104%	88.6%	74.6%	67.7%	59.5%	30.1%	16.2%	109%	107%	112%	99.9%	99.2%	89.6%	93.7%	77.3%	84.1%	52.1%	50%	98.8%	114%	104%	105%	94.7%	82.3%	72.2%	61.5%	52.6%	38%	30.6%
O=C(Cc1ccc(-c2ccc(OCCN3CCOCC3)cc2)cn1)NCc1ccccc1	118%	102%	123%	111%	43.7%	41.9%	43.8%	53.7%	52.5%	56.6%	40.6%	124%	122%	117%	128%	71.9%	27.1%	33.2%	34.1%	32.5%	31.3%	33.7%	118%	108%	124%	112%	62.5%	35.8%	35.2%	41.7%	40.6%	33.4%	42.7%
OC(=O)C(CC/1=C/C(=O)NC2=CC=CC=C12)NC(=O)C3=CC=C(Cl)C=C3 (stereo not drawn)	95.6%	117%	136%	121%	130%	121%	131%	122%	131%	136%	110%	121%	122%	121%	134%	132%	127%	140%	155%	137%	135%	134%	114%	125%	147%	127%	139%	137%	136%	135%	134%	132%	143%
COC1=C2C[C@@H](C)C[C@H](OC)[C@H](O)[C@@H](C)/C=C(\C)[C@H](OC(N)=O)[C@@H](OC)/C=C/C=C(\C)C(=O)NC(=CC1=O)C2=O	–	–	–	–	–	–	–	–	–	–	–	108%	119%	104%	119%	109%	111%	109%	110%	101%	80.4%	4.86%	112%	111%	123%	113%	115%	114%	113%	121%	123%	81.3%	5.45%
